# According to patent US11324829B2, “Antiseptic agent comprising meglumine or salt thereof” (priority 2016, dated 2022):
# Test system: E. coli, P. aeruginosa, S. aureus, C. albicans, A. brasiliensis
# Experiment: Evaluation against category IA standard, Preservatives-Effectiveness Tests, Japanese Pharmacopoeia 16th edition (all 5 strains)
# Assay type: cell-based
# Settings: summary of Tables 1 to 3, against each of the strains
# Protocol: The following strains were used as inoculum strains.
# A test sample of each formulation was inoculated with an inoculum microorganism liquid so that the concentration of the microorganism liquid in the test sample was 10^5 to 10^6 cells/mL (for each of the 5 strains). Specifically, an inoculum microorganism liquid was prepared for each strain at 10^7 to 10^8 cfu/mL, and inoculated into a test sample of each of Examples 1 to 11 and Comparative Example 1, and uniformly mixed to obtain a sample, so that the inoculum microorganism liquid was at 10^5 to 10^6 cfu/mL. These samples were stored at 20 to 25° C. under a light shielding condition. At sampling points (after 14 days or 28 days), 1 mL of each sample was withdrawn with a micropipette to measure a viable cell count. […]
# The test results in Tables 1 to 3 are each shown as the common logarithm value of the ratio (B/A) of a cell count (B) at the time of inoculation to a cell count (A) of viable cells. For example, the value “1” means that the measured viable cell count is as low as 10% of the inoculum cell count. Further, the formulations were evaluated whether they satisfied the standard of “category IA” according to the informative “Preservatives-Effectiveness Tests” defined in The Japanese Pharmacopoeia, 16th edition.
smiles,measurement,value
"CNC[C@H](O)[C@@H](O)[C@H](O)[C@H](O)CO [meglumine, Meglumine]",Antiseptic effect (in words),alone has an antiseptic effect
